Results reported in patent US20130018023A1, “COMPOSITIONS FOR TOPICAL ADMINISTRATION” (SOL-GEL TECHNOLOGIES LTD., priority 2010, published 2013).

Assays:
[1] = system: C. albicans (yeast); assay: MIC determination, macrodilution method; format: cell-based, Candida albicans (ATCC 10231)
Description: (§1) Methicillin-resistant Staphylococcus aureus (ATCC 33592) Coagualse Negative Staphylococcus epidermidis (Clinical Isolate) Vancomycin-Restistant Enterococcus faecali (ATCC 115992) Escherischia coli (ATCC 25922) Candida albicans (ATCC 10231)
(§2) Muller Hinton Agar (MHA) was used in this study for all bacteria: BD Cat #211438, Lot number 7155220. Yeast Dextrose Broth (Y/D B) was used to test C. albicans Yeast Dextrose Broth contains 10 g/L of yeast extract and 10 g/L of dextrose. Yeast Extract Cat #BD 210933, Lot number 8074851 (Expiration 2010-01-31). Dextrose Cat # BD215530 (Lot Number 6163169). Yeast Dextrose Agar (Y/D A) was used to test C. albicans Yeast Dextrose Agar contains 10 g/L of yeast extract and 10 g/L of dextrose and 17 g/L Agar. Agar Cat # BD 214010 (Lot Number 214010).
(§3) 1. The test organism, (bacteria or yeast) was obtained from frozen cultures. 2. Two days prior to the experiment, a portion of test bacterium from frozen culture collection was streaked and cultured on a non-selective agar plate (e.g. TSA). Plates were then incubated overnight at 37° C.±1° C. and the culture was examined for purity prior to use. […] 3. The day prior to the experiment, a portion of test organism was inoculated from the above-mentioned plate into MHB and vortexed. Incubate at 37° C.±1° C. for approximately eighteen hours. 4. For Candida albicans (ATCC 10231): The day prior to the experiment a portion of test organism was inoculated from the above-mentioned plate into Yeast/Dextrose Broth and vortexted. Bacterial MIC determination was conducted according to Kirby-Bauer macrodilution method. The bacterial/yeast density was adjusted to approximately 10^7 CFU/m; (Approx OD625 0.1±0.05). Stock solutions of each test article or combination were made by adding each test article to MHB to give an MHB/test article mixture of the following concentrations: Benzoyl Peroxide=6% in MHB and Mupiocin=256 μg/mL in MHB.
For bacterial: Mupirocin=256 μg/mL & BP at 0.0469% in MHB For yeast: Mupirocin=256 μg/mL & BP at 0.0115% in MHB […]

[2] = system: Staph epidermidis; assay: MIC determination, macrodilution method; format: cell-based
Description: as §1
(§4) Muller Hinton Broth (MHB) was used in this study for all bacteria: BD Cat #211443, Lot numbers 9097650.
as §3, with “Stock solutions of each test article or combination were made by adding each test article to MHB to give an MHB/test article mixture of the following concentrations: Benzoyl Peroxide=6% in MHB and Mupiocin=256 μg/mL in MHB.” left out

[3] = system: MRSA; assay: MIC determination, macrodilution method; format: cell-based, Methicillin-resistant Staphylococcus aureus (ATCC 33592)
Description: as §1, §4
as §3, with “Stock solutions of each test article or combination were made by adding each test article to MHB to give an MHB/test article mixture of the following concentrations: Benzoyl Peroxide=6% in MHB and Mupiocin=256 μg/mL in MHB.” left out

[4] = system: VRE; assay: MIC determination, macrodilution method; format: cell-based, Vancomycin-Restistant Enterococcus faecali (ATCC 115992)
Description: as §1, §4
as §3, with “Stock solutions of each test article or combination were made by adding each test article to MHB to give an MHB/test article mixture of the following concentrations: Benzoyl Peroxide=6% in MHB and Mupiocin=256 μg/mL in MHB.” left out

[5] = system: E. Coli; assay: MIC determination, macrodilution method; format: cell-based, Escherischia coli (ATCC 25922); details: Escherichia coli, MHB, approx. 24 h at 37° C., value as mupirocin concentration, combination starts at BP 0.0469%
Description: as §1, §4
as §3, with “Stock solutions of each test article or combination were made by adding each test article to MHB to give an MHB/test article mixture of the following concentrations: Benzoyl Peroxide=6% in MHB and Mupiocin=256 μg/mL in MHB.” left out

[6] = system: C. albicans (yeast); assay: MBC & MFC determination, sub-culturing from MIC tubes; format: cell-based, Candida albicans (ATCC 10231); details: Candida albicans, value as mupirocin concentration
Description: as §1, §2
(§5) 1. The test organism, (bacteria or yeast) was obtained from frozen cultures. 2. Two days prior to the experiment, a portion of test bacterium from frozen culture collection was streaked and cultured on a non-selective agar plate (e.g. TSA). Plates were then incubated overnight at 37° C.±1° C. and the culture was examined for purity prior to use. […] 3. The day prior to the experiment, a portion of test organism was inoculated from the above-mentioned plate into MHB and vortexed. Incubate at 37° C.±1° C. for approximately eighteen hours. 4. […]

[7] = system: Staph epidermidis; assay: MBC determination, sub-culturing from MIC tubes; format: cell-based; details: Staphylococcus epidermidis, mupirocin alone, read-out: Mupirocin MBC & MFC
Description: as §1, §2, §5

[8] = system: MRSA; assay: MBC determination, sub-culturing from MIC tubes; format: cell-based, Methicillin-resistant Staphylococcus aureus (ATCC 33592); details: Staphylococcus aureus, mupirocin alone, read-out: Mupirocin MBC & MFC
Description: as §1, §2, §5

[9] = system: VRE; assay: MBC determination, sub-culturing from MIC tubes; format: cell-based, Vancomycin-Restistant Enterococcus faecali (ATCC 115992); details: Enterococcus, value as mupirocin concentration, read-out: Mupirocin MBC & MFC
Description: as §1, §2, §5

[10] = system: E. Coli; assay: MBC determination, sub-culturing from MIC tubes; format: cell-based, Escherischia coli (ATCC 25922); details: Escherichia coli, value as mupirocin concentration, read-out: Mupirocin MBC & MFC
Description: as §1, §2, §5

[11] = system: Staph organisms; assay: Cidal activity (MBC) against Staph organisms; format: cell-based, Staphylococcus
Protocol: Bacterial MBC determination was conducted according to Kirby-Bauer macro-dilution method. […] The tubes were incubated for approximately 24 h at 37° C.±1° C. and then scored for their MBC.

Row | SMILES | BPO in DMSO MIC ([1]; C. albicans, BPO alone dissolved in DMSO) | BPO in DMSO MIC ([2]; BPO alone dissolved in DMSO) | BPO in DMSO MIC ([3]; BPO alone dissolved in DMSO) | BPO in DMSO MIC ([4]; BPO alone dissolved in DMSO) | MIC ([1]; Candida albicans, C. albicans, approx. 24 h at 37° C., value as mupirocin concentration, combination starts at BP 0.0115%) [µg/mL] | Efficacy against the yeast C. albicans (in words) ([1]; at the concentrations tested) | MIC ([2]; Staphylococcus epidermidis, MHB, approx. 24 h at 37° C., value as mupirocin concentration, combination starts at BP 0.0469%) [µg/mL] | MIC ([3]; Staphylococcus aureus, MHB, approx. 24 h at 37° C., value as mupirocin concentration, combination starts at BP 0.0469%) [µg/mL] | MIC ([4]; Enterococcus, MHB, approx. 24 h at 37° C., value as mupirocin concentration, combination starts at BP 0.0469%) [µg/mL] | MIC [5] [µg/mL] | MBC [6] [µg/mL] | MBC [7] [µg/mL] | MBC [8] [µg/mL] | MBC [9] [µg/mL] | MBC [10] [µg/mL] | Cidal activity against Staph organisms (in words) [11]
1 | O=C(OOC(=O)c1ccccc1)c1ccccc1 [BPO, Benzoyl peroxide] | 0.046% (0.19%) | 0.1875% (0.78%) | 0.1875% (0.78%) | 0.1875% (0.78%) | – | – | – | – | – | – | – | – | – | – | – | –
2 | C/C(=C\C(=O)OCCCCCCCCC(=O)O)C[C@@H]1OC[C@H](C[C@@H]2O[C@H]2[C@@H](C)[C@H](C)O)[C@@H](O)[C@H]1O [Mupirocin] | – | – | – | – | > 256 | ineffective | 1 | 1 | 64 | 64 | > 256 | 32 | 32 | > 256 | > 256 | Cidal activity
